Consider three compounds from ChEMBL document CHEMBL5291721, “A preclinical secondary pharmacology resource illuminates target-adverse drug reaction associations of marketed drugs” (Nat Commun, 2023).

The target in assay [1] is T1, Alpha-2C adrenergic receptor (Homo sapiens, UniProt P18825).
T1 sequence (P18825 whole entry): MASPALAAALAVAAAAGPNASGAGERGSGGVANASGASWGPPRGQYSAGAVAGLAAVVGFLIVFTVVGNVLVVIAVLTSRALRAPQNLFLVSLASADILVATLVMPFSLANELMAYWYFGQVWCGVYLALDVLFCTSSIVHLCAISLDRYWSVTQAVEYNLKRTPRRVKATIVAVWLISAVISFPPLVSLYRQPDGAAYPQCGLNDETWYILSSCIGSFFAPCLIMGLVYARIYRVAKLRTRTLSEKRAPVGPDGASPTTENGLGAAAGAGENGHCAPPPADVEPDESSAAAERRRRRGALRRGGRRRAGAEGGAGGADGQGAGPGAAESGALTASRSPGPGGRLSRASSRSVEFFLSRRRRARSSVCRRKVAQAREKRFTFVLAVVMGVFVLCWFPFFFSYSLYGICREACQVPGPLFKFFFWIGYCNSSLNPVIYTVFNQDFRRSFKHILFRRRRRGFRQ
Type of assay: functional.

The target in a further assay is Acetylcholinesterase (Homo sapiens, UniProt P22303). Format: functional.
Sequence of Acetylcholinesterase (P22303 whole entry): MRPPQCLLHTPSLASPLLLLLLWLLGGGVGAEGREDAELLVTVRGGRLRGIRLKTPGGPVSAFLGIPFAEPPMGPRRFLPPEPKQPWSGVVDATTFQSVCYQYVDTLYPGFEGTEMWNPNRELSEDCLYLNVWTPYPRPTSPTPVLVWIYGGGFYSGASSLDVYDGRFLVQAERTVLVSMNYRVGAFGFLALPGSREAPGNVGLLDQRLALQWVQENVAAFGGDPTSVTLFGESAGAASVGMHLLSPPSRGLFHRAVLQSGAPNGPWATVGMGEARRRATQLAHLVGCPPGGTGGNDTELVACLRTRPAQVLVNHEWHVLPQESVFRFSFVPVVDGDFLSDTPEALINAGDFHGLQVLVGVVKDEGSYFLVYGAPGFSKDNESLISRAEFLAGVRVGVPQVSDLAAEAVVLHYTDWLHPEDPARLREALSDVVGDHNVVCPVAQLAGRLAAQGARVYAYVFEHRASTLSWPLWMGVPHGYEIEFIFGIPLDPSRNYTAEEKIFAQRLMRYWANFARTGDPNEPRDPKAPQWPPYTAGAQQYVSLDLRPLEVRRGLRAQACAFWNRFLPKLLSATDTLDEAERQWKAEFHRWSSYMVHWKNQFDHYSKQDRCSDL

Molecules are shown by their SMILES.
Further: assay procedure not described here.

As a reminder, the AC50 is the concentration giving half of the maximal activity seen. For the compound `Cc1[nH]cnc1CN1CCc2c(c3ccccc3n2C)C1=O` [ALOSETRON], the AC50 in assay [1] worked out at 9.3 µM.
With `C=CC(=O)N1CCC[C@@H](n2nc(-c3ccc(Oc4ccccc4)cc3)c3c(N)ncnc32)C1` [IBRUTINIB], on Acetylcholinesterase, the concentration at half-maximal activity (AC50) is > 30 µM.
Still for that read-out and setting: with `CN1C[C@H](CNC(=O)OCc2ccccc2)C[C@@H]2c3cccc4c3c(cn4C)C[C@H]21` [METERGOLINE] the figure was 1.1 µM.
